In ChEMBL document CHEMBL3865822, “New palbociclib analogues modified at the terminal piperazine ring and their anticancer activities” (Eur J Med Chem, 2016):
pIC50: −log10 of the molar value. Calls of active or inactive are those of the source. The rule behind the calls is not given here.

What was measured:
[1] = target: Cyclin-dependent kinase 4 (Homo sapiens, UniProt P11802); test: Inhibition of CDK4 (unknown origin) using histone H1 as substrate after 10 mins in presence of [gamma32P]ATP
[2] = Cytotoxicity against human MCF7 cells assessed as reduction in cell viability after 48 hrs by CCK8 assay; type: functional, cell-based; details: MCF7, 48 h
[3] = target: Cyclin-dependent kinase 6 (Homo sapiens, UniProt Q00534); test: Inhibition of CDK6 (unknown origin) using histone H1 as substrate after 10 mins in presence of [gamma32P]ATP
[4] = Cytotoxicity against human MDA-MB-231 cells assessed as reduction in cell viability after 48 hrs by CCK8 assay; type: functional, cell-based; details: MDA-MB-231, 48 h
[5] = Cytotoxicity against human MDA-MB-453 cells assessed as reduction in cell viability after 48 hrs by CCK8 assay; type: functional, cell-based; details: MDA-MB-453, 48 h
MCF7 [6] = test: Antitumor activity against […] human MCF7 cells xenografted in RNU rat assessed as tumor growth inhibition at 128.8 mg/kg/day, ig administered for 14 days measured on day 15; type: functional, organism-based
Rattus norvegicus [7] = test: Toxicity in RNU rat xenografted with human MCF7 cells assessed as reduction in body weight at 128.8 mg/kg/day, ig administered for 14 days measured daily during compound dosing; type: organism-based; details: in vivo, po, 336 h
MCF7 [8] = test: Antitumor activity against human […] human MCF7 cells xenografted in RNU rat assessed as tumor growth inhibition at 100 mg/kg/day, ig administered for 14 days measured on day 15; type: functional, organism-based
Rattus norvegicus [9] = test: Toxicity in RNU rat xenografted with human MCF7 cells assessed as reduction in body weight at 122.4 mg/kg/day, ig administered for 14 days measured daily during compound dosing; type: organism-based; details: in vivo, po, 336 h
MCF7 [10] = test: Antitumor activity against […] human MCF7 cells xenografted in RNU rat assessed as tumor growth inhibition at 122.4 mg/kg/day, ig administered for 14 days measured on day 15; type: functional, organism-based

Sequence of Cyclin-dependent kinase 4 (P11802 whole entry): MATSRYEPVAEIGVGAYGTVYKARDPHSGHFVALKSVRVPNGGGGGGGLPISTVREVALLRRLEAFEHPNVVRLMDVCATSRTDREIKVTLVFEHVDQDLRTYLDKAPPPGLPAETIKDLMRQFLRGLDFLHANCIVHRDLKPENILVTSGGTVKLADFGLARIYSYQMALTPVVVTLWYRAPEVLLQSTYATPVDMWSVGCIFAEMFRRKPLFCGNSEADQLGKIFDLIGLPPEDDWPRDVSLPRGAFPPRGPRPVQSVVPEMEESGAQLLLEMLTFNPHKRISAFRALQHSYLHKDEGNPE
Sequence of Cyclin-dependent kinase 6 (Q00534 whole entry): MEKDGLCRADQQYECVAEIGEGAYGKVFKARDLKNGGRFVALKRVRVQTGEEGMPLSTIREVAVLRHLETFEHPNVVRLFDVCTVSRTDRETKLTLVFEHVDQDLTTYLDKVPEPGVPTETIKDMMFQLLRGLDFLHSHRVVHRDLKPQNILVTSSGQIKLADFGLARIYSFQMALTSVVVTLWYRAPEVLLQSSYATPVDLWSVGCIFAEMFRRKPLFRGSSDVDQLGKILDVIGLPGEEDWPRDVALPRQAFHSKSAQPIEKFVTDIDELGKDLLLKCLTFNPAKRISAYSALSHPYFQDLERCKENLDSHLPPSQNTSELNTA

For CC(=O)OCOC(=O)N1CCN(c2ccc(Nc3ncc4c(C)c(C(C)=O)c(=O)n(C5CCCC5)c4n3)nc2)CC1, the pIC50 [1] was 7.49, the pIC50 [2] was 6.43 and the pIC50 [3] was 7.55. It also gave a pIC50 [4] of less than 6.00 and a pIC50 [5] of 6.37.
For CCOC(=O)CCN1CCN(c2ccc(Nc3ncc4c(C)c(C(C)=O)c(=O)n(C5CCCC5)c4n3)nc2)CC1, the pIC50 [2] was less than 5.70.
Compound CCCCOC(=O)N1CCN(c2ccc(Nc3ncc4c(C)c(C(C)=O)c(=O)n(C5CCCC5)c4n3)nc2)CC1 has a pIC50 [2] of less than 5.70.
CC(=O)c1c(C)c2cnc(Nc3ccc(N4CCN(C(=O)CC#N)CC4)cn3)nc2n(C2CCCC2)c1=O gave a pIC50 [2] of 5.82.
CC(=O)c1c(C)c2cnc(Nc3ccc(N4CCN(C(C)=O)CC4)cn3)nc2n(C2CCCC2)c1=O gave a pIC50 [2] of less than 5.70.
CC(=O)c1c(C)c2cnc(Nc3ccc(N4CCN(C(=O)OCC(C)C)CC4)cn3)nc2n(C2CCCC2)c1=O gave a pIC50 [2] of less than 5.70.
In the case of CC(=O)c1c(C)c2cnc(Nc3ccc(N4CCN(CCO)CC4)cn3)nc2n(C2CCCC2)c1=O, the pIC50 [2] was 6.16.
In the case of CC(=O)c1c(C)c2cnc(Nc3ccc(N4CCN(C(=O)OC(C)C)CC4)cn3)nc2n(C2CCCC2)c1=O, the pIC50 [2] was less than 5.70.
Compound COCCCNCC(=O)N1CCN(c2ccc(Nc3ncc4c(C)c(C(C)=O)c(=O)n(C5CCCC5)c4n3)nc2)CC1 has a pIC50 [1] of 7.89, a pIC50 [2] of 6.98 and a pIC50 [3] of 7.74. The pIC50 [4] was 6.25, the TGI (MCF7 [6]) was “Active” and the Activity (Rattus norvegicus [7]) was “Non-Toxic”. It also gave a pIC50 [5] of 7.03.
With CC(=O)c1c(C)c2cnc(Nc3ccc(N4CCNCC4)cn3)nc2n(C2CCCC2)c1=O [PALBOCICLIB] the pIC50 [2] was 6.62, the pIC50 [4] was 6.24 and the TGI (MCF7 [8]) was “Active”. It also gave a pIC50 [5] of 6.86.
With CCOC(=O)CN1CCN(c2ccc(Nc3ncc4c(C)c(C(C)=O)c(=O)n(C5CCCC5)c4n3)nc2)CC1 the pIC50 [2] was less than 5.70.
With CC(=O)c1c(C)c2cnc(Nc3ccc(N4CCN(C(=O)CNCCN)CC4)cn3)nc2n(C2CCCC2)c1=O the pIC50 [1] was 7.72, the pIC50 [2] was 6.65 and the pIC50 [3] was 7.64. For the same compound, the Activity (Rattus norvegicus [9]) was “Non-Toxic”, the pIC50 [4] was 6.36 and the TGI (MCF7 [10]) was “Active”. For the same compound, the pIC50 [5] was 6.59.
With CCCCCOC(=O)N1CCN(c2ccc(Nc3ncc4c(C)c(C(C)=O)c(=O)n(C5CCCC5)c4n3)nc2)CC1 the pIC50 [2] was less than 5.70.
CC(=O)c1c(C)c2cnc(Nc3ccc(N4CCN(CCC(=O)O)CC4)cn3)nc2n(C2CCCC2)c1=O gave a pIC50 [2] of less than 5.70.
Work on CCN1CCN(c2ccc(Nc3ncc4c(C)c(C(C)=O)c(=O)n(C5CCCC5)c4n3)nc2)CC1 yielded a pIC50 [1] of 7.60, a pIC50 [2] of 6.27 and a pIC50 [3] of 7.47. The pIC50 [4] was less than 6.00 and the pIC50 [5] was 6.31.
For CCCOC(=O)N1CCN(c2ccc(Nc3ncc4c(C)c(C(C)=O)c(=O)n(C5CCCC5)c4n3)nc2)CC1, the pIC50 [2] was less than 5.70.
In the case of CC(=O)c1c(C)c2cnc(Nc3ccc(N4CCN(C(=O)CCC(=O)O)CC4)cn3)nc2n(C2CCCC2)c1=O, the pIC50 [2] was less than 5.70.
Work on COC(=O)N1CCN(c2ccc(Nc3ncc4c(C)c(C(C)=O)c(=O)n(C5CCCC5)c4n3)nc2)CC1 yielded a pIC50 [2] of less than 5.70.
Work on CCCC(=O)OCN1CCN(c2ccc(Nc3ncc4c(C)c(C(C)=O)c(=O)n(C5CCCC5)c4n3)nc2)CC1 yielded a pIC50 [2] of less than 5.70.
COCCN1CCN(c2ccc(Nc3ncc4c(C)c(C(C)=O)c(=O)n(C5CCCC5)c4n3)nc2)CC1 showed a pIC50 [2] of 6.05.
